# Assay results as given in PubChem BioAssay AID743478 (Broad Institute, 2014).
# “And” between values parts separate entries of the source, which are not always exact repeats. Equal values may be shown once. The source made the active and inactive calls.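 The calls were made as follows: active = fitted curve falls past -35% activity change at a dose below twice the highest valid tested dose; inconclusive = no clear call, values can overlap the other calls; inactive = the rest, including activity opposite to the expected decrease.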
# System: A673 viability, CellTiter-Glo ATP luminescence, 72 h
# Test: killing of EWS/Fli1-dependent A673 cells, confirmation, cell-based, luminescence, retest at dose, dry powder (AID 743478)
# Conditions: not given
row,SMILES,AC35
1,COc1ccc(-c2ccc3c(c2)[C@H]2[C@H](CCN2S(=O)(=O)c2ccc(OC)cc2)[C@@H](CO)N3)cc1,3950 nM
2,N#Cc1ccc(-c2ccc3c(c2)[C@H]2[C@H](CCN2S(=O)(=O)c2cccc(F)c2)[C@@H](CO)N3)cc1,5430 nM
3,CN(C)c1ccc2c(c1)OC(N)=C(C#N)C2c1cccc(F)c1 (configuration not stated),17.7 nM
4,CN1CCN(CCOc2cc(OC3CCOCC3)c3c(Nc4c(Cl)ccc5c4OCO5)ncnc3c2)CC1,22000 nM
5,Cc1nc(Nc2ncc(C(=O)Nc3c(C)cccc3Cl)s2)cc(N2CCN(CCO)CC2)n1,5450 nM
6,O=C(c1cc(Cc2n[nH]c(=O)c3ccccc23)ccc1F)N1CCN(C(=O)C2CC2)CC1,3970 nM
7,COc1ccc(C2=Nn3c(nnc3-c3ccccc3F)SC2)cc1OC,3180 nM
8,COc1ccc(OC)c(-c2nnc3n2N=C(c2ccc(OC)c(OC)c2)CS3)c1,< 23.5 nM and 16.3 nM
9,CCOC(=O)CCNc1cc(N2CCc3ccccc3CC2)nc(-c2ccccn2)n1,14800 nM
10,COc1cccc2c1C(=O)c1c(O)c3c(c(O)c1C2=O)C[C@@](O)(C(=O)CO)C[C@@H]3O[C@H]1C[C@H](N)[C@H](O)[C@H](C)O1,< 50 nM
11,COc1ccc(S(=O)(=O)N2CC[C@@H]3[C@H](CO)Nc4ccc(-c5ccc(C#N)cc5)cc4[C@@H]32)cc1,6540 nM
12,COc1ccc(C2=Nn3c(nnc3-c3ccccc3Cl)SC2)cc1OC,392 nM
13,CCC(C)C(=O)OC1CC(C)C=C2C=CC(C)C(CCC(O)CC(O)CC(=O)O)C21 (configuration not stated),25200 nM
14,CC(C)(O)CCc1ccc(O)c2c(=O)c3c(O)c4c(cc3oc12)O[C@H]1OC=C[C@@]41O,32.6 nM
15,N#CC1=C(N)Oc2cc(N)ccc2C1c1ccccc1 (configuration not stated),12200 nM
16,Cc1cc(Nc2cc(N3CCN(C)CC3)nc(Sc3ccc(NC(=O)C4CC4)cc3)n2)n[nH]1,271 nM
17,CC1(C)CC(c2nc(-c3ccc4ccc(-c5ccccc5)nc4c3)c3c(N)nccn23)C1,2020 nM
18,COc1ccc(S(=O)(=O)N(C(C)=O)c2ccc(OC(C)=O)c3ccccc23)cc1[N+](=O)[O-],460 nM
19,COc1ccc(S(=O)(=O)N2CC[C@@H]3[C@@H](CO)Nc4ccc(-c5cccc(C#N)c5)cc4[C@@H]32)cc1,3950 nM
20,COc1ccc(C(=O)CC2(O)C(=O)Nc3c(Cl)ccc(Cl)c32)cc1 (configuration not stated),2250 nM
21,Cc1ccc([N+](=O)[O-])cc1S(=O)(=O)N(C)C,3970 nM

row,SMILES,AC35
1,CCc1c2c(nc3ccc(O)cc13)-c1cc3c(c(=O)n1C2)COC(=O)C3(O)CC (configuration not stated),2 nM
2,C[C@@]1(C(=O)Nc2ccc(F)nc2)CCCN1c1nc(Nc2cc(C3CC3)[nH]n2)c2cccn2n1,296 nM
3,N#CC1=C(N)Oc2cc(O)ccc2C1c1cccc(Br)c1 (configuration not stated),1840 nM
4,N#CC1=C(N)Oc2cc(OC(=O)c3ccccc3)ccc2C1c1cccc(Br)c1 (configuration not stated),2460 nM
5,N#CC1=C(N)Oc2ccc3ccccc3c2C1c1cccc(F)c1 (configuration not stated),526 nM
6,N#CC1=C(N)Oc2cc3c(cc2C1c1cccc(Br)c1)OCO3 (configuration not stated),28.8 nM
7,COc1cccc(S(=O)(=O)N2CC[C@@H]3[C@@H](CO)Nc4ccc(-c5ccc(C#N)cc5)cc4[C@@H]32)c1,21400 nM
8,COc1cc([C@@H]2c3cc4c(cc3[C@@H](O[C@@H]3O[C@@H]5CO[C@@H](C)O[C@H]5[C@H](O)[C@H]3O)[C@H]3COC(=O)[C@H]23)OCO4)cc(OC)c1O,751 nM
9,COc1ccc(-c2ccc3c(c2)[C@H]2[C@H](CCN2S(=O)(=O)c2ccc(OC)cc2)[C@@H](CO)N3C)cc1,3420 nM
10,CC[C@@]1(O)C(=O)OCc2c1cc1n(c2=O)Cc2cc3c(CN(C)C)c(O)ccc3nc2-1,16.6 nM
11,N#CC1=C(N)Oc2cc(N)ccc2C1c1cccc(Br)c1 (configuration not stated),104 nM
12,COc1ccc(C2=Nn3c(nnc3-c3ccccc3OC)SC2)cc1OC,55.6 nM
13,COc1ccc(S(=O)(=O)N2CC[C@@H]3[C@@H](CO)Nc4ccc(-c5ccc(C#N)cc5)cc4[C@@H]32)cc1,4030 nM
14,C=C([C@@H](O)[C@@H](C)O)[C@@H](OC)[C@]1(C)Cc2cc3cc(O[C@H]4CC(OC5CC(O)C(O)C(C)O5)C(O)C(C)O4)cc(O)c3c(O)c2C(=O)[C@H]1OC1CC(OC2CC(OC3CC(C)(O)C(O)C(C)O3)C(O)C(C)O2)C(O)C(C)O1 (some centres not stated),36.8 nM
15,Nc1ncnc2c1c(-c1cccc(OCc3ccccc3)c1)cn2C1CC(CN2CCCC2)C1 (configuration not stated),3760 nM
16,CC[C@]1(O)CC2CN(CCc3c([nH]c4ccccc34)[C@@](C(=O)OC)(c3cc4c(cc3OC)N(C=O)[C@H]3[C@@](O)(C(=O)OC)[C@H](OC(C)=O)[C@]5(CC)C=CCN6CC[C@]43[C@@H]65)C2)C1 (some centres not stated),< 1.5 nM
17,N#CC1=C(N)Oc2cc(N)ccc2C1c1ccc2ccccc2c1 (configuration not stated),11900 nM
18,CN(C(=O)CCCOc1ccc2[nH]c(=O)ccc2c1)C1CCCCC1,20700 nM
19,COc1ccc(-c2cc(NC=O)c3ncc(-c4ccc(OC)c(OC)c4)n3c2)cc1,545 nM
20,N#Cc1ccc(-c2ccc3c(c2)[C@H]2[C@H](CCN2S(=O)(=O)c2ccccc2F)[C@@H](CO)N3)cc1,12500 nM
21,Nc1ccn([C@@H]2O[C@H](CO)[C@H](O)C2O)c(=O)n1 (some centres not stated),66 nM

row,SMILES,AC35
1,Cc1ccccc1C1C(C#N)=C(N)Oc2cc(N)ccc21 (configuration not stated),13100 nM
2,O=C(Cc1ccc(-c2ccc(OCCN3CCOCC3)cc2)cn1)NCc1ccccc1,< 23.5 nM
3,Cc1c([C@H](C(Cl)Cl)[C@H](O)[C@H]2C[C@H](C)C(=O)O2)ccc2c1C(=O)[C@H]1[C@H]2C[C@@H](Br)[C@@]23O[C@@H](CO[C@H]2O)C[C@]13C,< 50 nM
4,COc1cccc(C2C(C#N)=C(N)Oc3cc(N)ccc32)c1 (configuration not stated),444 nM
5,Cn1cc(-c2ccncc2)c(-c2ccc(OCc3ccc4ccccc4n3)cc2)n1,21300 nM
6,CN1c2ccc(-c3ccc(C#N)cc3)cc2[C@H]2[C@H](CCN2S(=O)(=O)c2cccc(F)c2)[C@H]1CO,3650 nM
7,Cc1ccc(S(=O)(=O)N2CC[C@@H]3[C@@H](CO)Nc4ccc(-c5ccc(C#N)cc5)cc4[C@@H]32)cc1,19800 nM
8,CC(C)N1c2ccccc2C(c2ccc(F)cc2)C1/C=C/C(O)CC(O)CC(=O)O (configuration not stated),1420 nM
9,CCCCc1ccc2nc(NC(=O)OC)[nH]c2c1,< 50 nM
10,N#CC1=C(N)Oc2cc(N)ccc2C1c1cccc(F)c1 (configuration not stated),907 nM
11,Cc1cccc(C2C(C#N)=C(N)Oc3cc(N)ccc32)c1 (configuration not stated),486 nM
12,COc1ccc(S(=O)(=O)N2CC[C@@H]3[C@@H](CO)N(C)c4ccc(-c5ccc(F)cc5)cc4[C@@H]32)cc1,3080 nM
13,COc1cc(C2C(C#N)=C(N)Oc3cc(N(C)C)ccc32)cc2c1OCO2 (configuration not stated),82.3 nM
14,N#CC1=C(N)Oc2cc(N)ccc2C12C(=O)Nc1ccc(Br)cc12 (configuration not stated),18900 nM
15,COc1ccccc1-c1nnc2n1N=C(c1ccc(O)c(O)c1)CS2,807 nM
16,N#CC1=C(N)Oc2cc(N)ccc2C1c1ccccc1Cl (configuration not stated),12300 nM
17,COc1ccccc1-c1nnc2n1N=C(c1ccc3c(c1)OCO3)CS2,16.4 nM
18,COc1ccccc1S(=O)(=O)N1CC[C@@H]2[C@@H](CO)Nc3ccc(-c4ccc(C#N)cc4)cc3[C@@H]21,11600 nM
19,Clc1ccccc1-c1nnc2n1N=C(c1ccc3c(c1)OCO3)CS2,408 nM

# System: not listed separately
# Test: as above
# Conditions: A673 viability, CellTiter-Glo ATP luminescence, 72 h; at 1.6 µM (top of the series)
row,SMILES,"activity change, negative = cytotoxicity"
1,CCN(CCO)CCCOc1ccc2c(Nc3cc(CC(=O)Nc4cccc(F)c4)[nH]n3)ncnc2c1,-35.3% (inactive)

# Same assay, conditions: A673 viability, CellTiter-Glo ATP luminescence, 72 h; at 6 µM (top of the series)
row,SMILES,"activity change, negative = cytotoxicity"
1,Clc1ccc(-c2cnc3ccc(-c4ccccc4)cn23)cc1,1.33% (inactive)

# Same assay, conditions: A673 viability, CellTiter-Glo ATP luminescence, 72 h; at 12 µM (top of the series)
row,SMILES,"activity change, negative = cytotoxicity"
1,COc1ccc(NC(=O)Nc2ccc3c(c2)C(=O)N([C@@H](C)CO)C[C@H](C)[C@H](CN(C)Cc2ccc4c(c2)OCO4)O3)cc1,-32.3% (inactive)

# Same assay, conditions: A673 viability, CellTiter-Glo ATP luminescence, 72 h; at 26 µM (top of the series)
row,SMILES,"activity change, negative = cytotoxicity"
1,C[C@]1(c2nc3c(C(N)=O)cccc3[nH]2)CCCN1,-26% (inactive)
2,CCC(C)(C)C(=O)O[C@H]1C[C@@H](C)C=C2C=C[C@H](C)[C@H](CC[C@@H]3C[C@@H](O)CC(=O)O3)[C@H]21,-7.51% (inactive)
3,COc1ccc(C2CNC(=O)C2)cc1OC1CCCC1 (configuration not stated),-1.09% (inactive)
4,COc1ccc(C2=Nn3c(nnc3-c3ccccc3)SC2)cc1OC,-5.89% (inactive)
5,COc1ccc(-c2cc(NC(C)=O)c3ncc(-c4ccc(OC)c(OC)c4)n3c2)cc1,-6.5% (inactive)
6,COc1ccc(CNc2nc(N3CCC[C@H]3CO)ncc2C(=O)NCc2ncccn2)cc1Cl,0.28% (inactive)
7,O=C(Nc1c(Cl)cncc1Cl)c1ccc(OC(F)F)c(OCC2CC2)c1,7.47% (inactive)
8,N#CC1=C(N)Oc2cc(N)ccc2C1c1ccc(Cl)cc1 (configuration not stated),0.262% (inactive)
9,Cc1ccc(C2C(C#N)=C(N)Oc3cc(N)ccc32)cc1 (configuration not stated),-0.754% (inactive)
10,CN1c2ccc(-c3ccc(C#N)cc3)cc2[C@H]2[C@H](CCN2S(=O)(=O)c2ccc(F)cc2)[C@H]1CO,-15.2% (inactive)
11,COc1ccccc1C1C(C#N)=C(N)Oc2cc(N)ccc21 (configuration not stated),-4.28% (inactive)
12,COc1ccc(C2C(C#N)=C(N)Oc3cc(N)ccc32)cc1 (configuration not stated),-1.79% (inactive)

# Same assay, conditions: A673 viability, CellTiter-Glo ATP luminescence, 72 h; at 50 µM (top of the series)
row,SMILES,"activity change, negative = cytotoxicity"
1,O=P1(NCCCl)OCCCN1CCCl (configuration not stated),0.494% (inactive)
